Tests used:
[1] = system: patient who had loss of taste and smell from COVID-19; experiment: Side effects reported during intranasal theophylline treatment; format: in vivo, human; conditions: 80 μg theophylline via nasal spray once per day, 3 months
Description: (§1) Theophylline was administered to a patient who had loss of taste and smell from COVID-19. A formulation containing 80 μg of theophylline was administered via two actuations from nasal spray device once per day. Prior to the initial administration of theophylline, a baseline smell test was performed. A follow-up smell test was performed 3 months after the initial administration. […] The patient's detection threshold (DT) and recognition threshold (RT) for pyridine (Pyr), nitrobenzene (NO2B), thiophene (Thio) and amyl acetate (AA) was determined before treatment (pre) and after treatment (3M). In all four odorant tests, the patient's detection threshold and recognition threshold improved. An improvement of 1 bottle unit means that a patient could detect and/or recognize an odorant that was 10 times lower in concentration, when compared to baseline. For example, the recognition threshold (RT) of AA improved by 8 bottle units, also equivalent to an improvement of 8 orders of magnitude. In this case, the patient could detect a concentration of AA that was 10^8 lower in concentration. Bottle unit numbers that are 5 or lower are considered to be in the range of normal.

[2] = system: patient who had loss of taste and smell from COVID-19; experiment: Psychophysical smell test, forced-choice, three-stimuli, stepwise-staircase technique (detection and recognition thresholds for four odors); format: in vivo, human
Description: The Patient initially reported their sensory dysfunction as either loss of taste (i.e., flavor) and/or smell function. This subjective response was documented by objective psychophysical measurements of olfactory function administered to each patient by use of a forced-choice, three-stimuli, stepwise-staircase technique in a fixed, controlled design (1, 2). Efficacy of this technique and results of testing were previously documented in a double-blind clinical trial (2). Four odors were used; they were pyridine (dead-fish odor), nitrobenzene (bitter-almond odor), thiophene (petroleum-like odor) and amyl acetate (banana-oil odor). Detection thresholds (DT), and recognition thresholds (RT) values for each odor were determined as previously described (1, 2). Thresholds were converted into bottle units (BU) as previously described (2) and results reported as M of correct responses for each odor in each treatment group. References: (1) Henkin, R. I. Evaluation and treatment of human olfactory dysfunction, in Otolaryngology (English, G. M. Ed.), Lip pincott, Philadelphia, 1993, Vol. 2, pp. 1-86. (2) Henkin, R. I., Schecter, P. J., Friedewald, W. T., DeMets, D. L., Raff, M. S. A double blind study of the effects of zinc sulfate on taste and smell dysfunction. Amer. J. Med. Sci. 1976; 272: 285-299.
as §1

[3] = 3 months after initial administration, 80 μg theophylline nasal spray once per day, Pre value 10
[4] = 3 months after initial administration, 80 μg theophylline nasal spray once per day, Pre value 11
[5] = 3 months after initial administration, 80 μg theophylline nasal spray once per day, Pre value 12

SMILES: Cn1c(=O)c2[nH]cnc2n(C)c1=O [theophylline]
- side effects [1]: No side effects
- DT Thio (detection threshold, thiophene) [2, 3]: 4 bottle units
- RT Thio (recognition threshold, thiophene) [2, 3]: 4 bottle units
- DT AA (detection threshold, amyl acetate) [2, 4]: 4 bottle units
- DT NO2B (detection threshold, nitrobenzene) [2, 4]: 9 bottle units
- RT Pyr (recognition threshold, pyridine) [2, 4]: 7 bottle units
- DT Pyr (detection threshold, pyridine) ([2]; 3 months after initial administration, 80 μg theophylline nasal spray once per day, Pre value 11, 5 or lower is normal): 7 bottle units
- RT AA (recognition threshold, amyl acetate) [2, 5]: 4 bottle units
- RT NO2B (recognition threshold, nitrobenzene) [2, 5]: 9 bottle units
- improvement of recognition threshold (RT) of AA ([2]; 3 months vs baseline, 80 μg theophylline nasal spray once per day): 8 bottle units
- factor by which the detectable concentration of AA was lower ([2]; 3 months vs baseline, 1 bottle unit = 10 times lower concentration): 10^8
- detection threshold and recognition threshold in all four odorant tests ([2]; 3 months vs baseline, pyridine, nitrobenzene, thiophene, amyl acetate): improved
